The text below walks through data of BindingDB's records for doi:10.1021/acsmedchemlett.3c00041 (Insilico Medicine Hong Kong, 2023).

Tyrosine-protein kinase JAK1, sequence (P23458 whole entry): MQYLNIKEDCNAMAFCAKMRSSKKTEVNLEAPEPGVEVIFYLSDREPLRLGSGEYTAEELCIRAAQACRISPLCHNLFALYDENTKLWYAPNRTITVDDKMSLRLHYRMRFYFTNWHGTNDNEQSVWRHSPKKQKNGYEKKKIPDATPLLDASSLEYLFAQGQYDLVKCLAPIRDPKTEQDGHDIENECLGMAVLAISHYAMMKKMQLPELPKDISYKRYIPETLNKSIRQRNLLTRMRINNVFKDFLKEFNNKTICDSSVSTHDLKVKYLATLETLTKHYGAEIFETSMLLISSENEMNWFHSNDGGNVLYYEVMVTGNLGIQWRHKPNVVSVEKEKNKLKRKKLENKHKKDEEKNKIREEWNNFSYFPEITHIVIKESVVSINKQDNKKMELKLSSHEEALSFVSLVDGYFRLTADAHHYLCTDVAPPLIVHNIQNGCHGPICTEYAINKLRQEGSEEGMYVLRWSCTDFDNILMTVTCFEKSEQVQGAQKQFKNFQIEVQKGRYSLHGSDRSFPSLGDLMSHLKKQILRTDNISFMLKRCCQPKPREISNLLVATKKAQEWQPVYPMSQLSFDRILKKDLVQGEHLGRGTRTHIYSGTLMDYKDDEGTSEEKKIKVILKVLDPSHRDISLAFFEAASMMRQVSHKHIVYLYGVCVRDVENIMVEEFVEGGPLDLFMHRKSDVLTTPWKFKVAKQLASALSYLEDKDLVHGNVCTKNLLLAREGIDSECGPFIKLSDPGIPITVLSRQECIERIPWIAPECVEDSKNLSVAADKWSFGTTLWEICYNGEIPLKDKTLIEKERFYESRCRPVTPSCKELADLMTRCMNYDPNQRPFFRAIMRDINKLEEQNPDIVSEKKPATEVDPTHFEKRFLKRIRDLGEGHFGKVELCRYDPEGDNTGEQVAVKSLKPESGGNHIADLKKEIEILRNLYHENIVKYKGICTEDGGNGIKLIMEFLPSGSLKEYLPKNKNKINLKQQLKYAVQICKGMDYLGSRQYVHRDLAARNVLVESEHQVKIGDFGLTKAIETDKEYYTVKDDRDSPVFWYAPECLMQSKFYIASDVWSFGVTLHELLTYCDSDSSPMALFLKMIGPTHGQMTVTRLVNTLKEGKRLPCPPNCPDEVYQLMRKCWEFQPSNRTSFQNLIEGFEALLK

This experiment has as its target Tyrosine-protein kinase JAK1 (Homo sapiens, UniProt P23458). Nature of the experiment: Inhibition of JAK1 (unknown origin).
The molecule `CCC1CN(C(=O)NCC(F)(F)F)CC1NCc1ccc(C)nc1-c1cnc2[nH]ccc2c1` (stereo not drawn) came in with an IC50 of 500 nM.
Under `CCC1CN(C(=O)NCC(F)(F)F)CC1N(C)c1ncnc2[nH]ccc12` (stereo not drawn) stands 930 nM; under `CCC1CN(C(=O)NCC(F)(F)F)CC1c1nc(N)nc2[nH]ccc12` (stereo not drawn), 9600 nM.
